# Where “and” joins values, the source holds several entries; their conditions need not be identical. Equal entries are not always repeated.
# Legend:
# Rankl [1] = assay: Rankl transcript levels by RT-PCR in mouse mammary organoids stimulated ex vivo; type: cell-based; details: for Rankl transcript levels over vehicle-treated control: BalbC females, 6 h of stimulation
# Procedure: (§1) Next, we stimulated mouse mammary organoids derived from several BalbC females with R5020 or different progestins (Fig 1A). […] No significant change in Rankl and Wnt4 transcript levels was detected during the first 2 h (Appendix Fig S1D). By 6 h of R5020 stimulation, Rankl and Wnt4 transcript levels increased 22.4 and 5.8‐fold over the vehicle‐treated control, respectively.
# (§2) Animal experiments were performed in accordance with protocol approved by the Service de la Consommation et des Affaires vétérinaires of Canton de Vaud (VD 1865.3, VD 1865.4). NOD. Cg‐Prkdc^scid Il2rg^tm1Wjl/SzJ mice (Charles River), BalbC, and C57Bl6 breeders were purchased from Jackson Laboratories. Mammary glands were isolated from 18‐ to 35‐week‐old mice, lymph nodes removed, minced with surgical blades, and digested in DMEM/F12, 1% penicillin/streptomycin B with collagenase A 0.25 mg/ml (Roche). […] Fat was removed, and pellet containing organoids washed with phosphate‐buffered saline (PBS), resuspended 5 min in 3 ml red cell blood lysis buffer and washed twice with PBS.
# (§3) Human breast microstructures and mouse organoids were homogenized in Trizol (Invitrogen). Aqueous phase containing RNA was chloroform extracted and processed with miRNeasy extraction kit (Qiagen). cDNA was synthesized using random p(dN)6 primers (Roche) and MMLV reverse transcriptase (Invitrogen). SYBR Green PCR Core Reagent System (Qiagen) was used for semi‐quantitative real time (RT‐PCR) using the following primers.
# AR = tested on: AR; set-up: method as in earlier work; details: various assays, ref Fuhrmann et al, 1995, Muhn et al, Bouchard, 2005, Mishell, 2008, Schneider et al, 2009, Africander et al, 2011, Louw‐du Toit et al, 2017; cited from earlier work
# HBECs [2] = assay: MKI67/Ki67 expression in xenografted HBECs; type: in vivo, human; details: 21 days pellets; for cell proliferation (KI67 and hECAD double+ cells), overall analysis: HBECs from 11 different patients; for cell proliferation (KI67 and hECAD double+ cells): one mammoplasty (M310)
# Description: (§4) Next, we sought for a readout of in vivo cell proliferation different from radiance. […] Given that MKI67 expression could replace the luciferase measurements as a readout, we used a modified experimental setup for a second round of experiments. We derived HBECs from viably frozen mammoplasty samples (Appendix Table S3) and engrafted them to different mammary glands of NSG females without viral infection. Four months later, the 24 recipient females, each engrafted with 5 different mammoplasties received pellets containing either vehicle, progesterone, or 1 of 6 progestins for 21 days. At sacrifice, xenografted glands were histologically sectioned and cell proliferation was quantified using co‐IF with anti‐MKI67 and anti‐hECAD antibodies. For one of the mammoplasties, we were able to obtain measurements for all experimental conditions (Fig 5I). […] For the remaining mammoplasties, between 3 and 8 different experimental conditions were successfully quantified (Appendix Table S4). […] CPA (P < 0.0001) decreased proliferation, whereas CMA and DSP had no effect (Fig 5K). As AR signaling increases AR protein levels, we performed co‐IF for AR and hECAD as another means to assess AR signaling activity.
# Tissues were fixed for 2 h at room temperature in 4% paraformaldehyde and paraffin‐embedded. Dewaxed and rehydrated paraffin sections were pretreated in 10 mM Na citrate (pH 6.0) at 95° for 20 min. Blocking was performed with 1% BSA for 60 min. Primary antibodies used were as follows: Ki67 (rabbit α‐Ki67, clone Sp6, Spring Amsbio, dilution 1:200), ER (rabbit α‐ER, clone Sp1, Zytomed RTU), PR (rabbit α‐PR, clone 1E2, Ventana RTU), AR (rabbit α‐AR, clone SP107, Thermo Fisher, diluted 1:200), CK7 (rabbit α‐CK7, clone Sp52, Abcam, diluted 1:500), CK19 (mouse KS19.2 (Z105.6), American Research Products Inc. (diluted 1:50), and mouse α‐ECAD (clone G‐10, sc‐8426, diluted 1:100). For IHC, chromogenic revelation was performed with ChromoMap DAB kit (Roche Diagnostics, Switzerland) and sections were counterstained with Mayer’s hematoxylin. For fluorescence microscopy, nuclei were counterstained with DAPI (Sigma). IHC for ER, PR, and AR was performed on Discovery Ventana ULTRA (44). IHC images were acquired on Leica DM 2000 with Leica DFC450 C camera. IF images were acquired on Zeiss LSM700 confocal microscope. Slides were scanned with Olympus VS120‐L100 slide scanner with 20×/0.75 objective and Pike F505 C Color camera. Images were loaded into QuPath using the BioFormats extension (Bankhead et al, 2017).
# human breast epithelium = details: female, mouse, in vivo, 8 months
# Procedure: All the engrafted glands were processed for histological analysis and H&E stained.
# (§7) Mice were anesthetized by intraperitoneal injection with 10 mg/kg xylazine and 90 mg/kg ketamine (Graeub) and injected intraductally with 10 μl cell suspension per gland. Bioluminescence imaging was performed as described (Sflomos et al, 2016). After 3–10 weeks, when bioluminescence from individual glands reached 10^7 total flux (p/s/cm2/sr), animals were assigned to different treatment groups and hormone pellets implanted subcutaneously. Enzalutamide (Selleckchem, Catalog No. S1250) dissolved in 15% DMSO in PEG300 was injected intraperitoneally 3 times/week at 30 mg/kg.
# KLK3 = KLK3 mRNA in xenografted HBECs by RT-PCR with human-specific primers; type: in vivo; details: 21 days pellets (Fig 5M)
# Description: Consistent with AR and PR sharing a common hormone response element (Claessens et al, 1996), KLK3 was induced upon progestin stimulation. […] This is in agreement with previous findings that KLK3 expression is under the control of both androgens and progestins in T47D cells (Zarghami et al, 1997).
# as §4, §3
# HBECs [3] = assay: In vivo growth of intraductal HBEC xenografts measured by radiance; details: 60 days of treatment, subcutaneous pellets
# Description: To compare the effects of progesterone and different progestins on HBECs in vivo, we infected single cell suspensions obtained from fresh reduction mammoplasty specimens with GFP‐luciferase2‐expressing lentiviruses. The infected cell mixture was grafted intraductally to up to 5 glands of as many recipients as possible. The engraftment and growth of the xenografted cells were monitored weekly by in vivo imaging. When radiance reached > 10E07 on average per mammary gland, 60‐day‐release pellets were implanted subcutaneously, usually within 3–10 weeks after cell injection. At sacrifice, blood was collected and plasma levels of the administered compounds as well as endogenous steroid hormones were determined by liquid chromatography‐mass spectrometry (LC‐MS) (Laszlo et al, 2019).
# Next, the in vivo growth of HBEC xenografts stimulated with progesterone or different progestins was analyzed. […] In addition, the fold change radiance of treated versus untreated samples at endpoint was calculated (Fig 5A–C).
# as §7
# Pellets were prepared by mixing the required amount of part A, MP3745/E81949 and part B, MP3744/E81950 of low consistency silicon elastomer (MED‐4011) and hormone powder to homogeneity. Mix was transferred to a syringe and incubated at 37°C overnight. The silicon‐hormone mass was removed from the syringe and cut to pieces, as described (Duss et al, 2007). The original protocol was adapted for different doses as described below.
# Wnt4 [4] = assay: Wnt4 transcript levels by RT-PCR in mouse mammary organoids stimulated ex vivo; type: cell-based; details: for Wnt4 transcript levels over vehicle-treated control: BalbC females, 6 h of stimulation
# Procedure: as §1, §2, §3
# [5] = tested on: endogenous hormone levels in mice; assay: Endogenous steroid hormone plasma levels in treated host mice by LC-MS; type: in vivo, mouse; details: xenografted NSG females with pellets
# Description: Next, we assessed whether progesterone and progestins differentially affected endogenous hormone levels in mice. Plasma 17‐β‐estradiol levels were not affected by any of the treatments (Fig 4H). […] Plasma testosterone levels were not altered by any treatment with the exception of DSP, which decreased them (Fig 4H). Thus, prolonged exposures to progestins differentially affect endogenous progesterone plasma levels and DSP decreases testosterone plasma levels in host mice.
# Wnt4 [6] = assay: Wnt4 induction by R5020 or LNG in mouse mammary organoids co-treated with AR antagonists; type: cell-based; details: antagonist 100 µM, 6 h, C57Bl6-derived organoids
# Procedure: (§5) Enzalutamide (100 µM) abrogated Rankl induction by R5020 (P < 0.05) but had no effect on Wnt4 induction (Fig 1H).
# (§6) Animal experiments were performed in accordance with protocol approved by the Service de la Consommation et des Affaires vétérinaires of Canton de Vaud (VD 1865.3, VD 1865.4). NOD. Cg‐Prkdc^scid Il2rg^tm1Wjl/SzJ mice (Charles River), BalbC, and C57Bl6 breeders were purchased from Jackson Laboratories. Mammary glands were isolated from 18‐ to 35‐week‐old mice, lymph nodes removed, minced with surgical blades, and digested in DMEM/F12, 1% penicillin/streptomycin B with collagenase A 0.25 mg/ml (Roche). Tissue was concomitantly stimulated with hormones for 1, 2, or 6 h and centrifuged at 652 g for 5 min. Fat was removed, and pellet containing organoids washed with phosphate‐buffered saline (PBS), resuspended 5 min in 3 ml red cell blood lysis buffer and washed twice with PBS.
# as §3
# Rankl [7] = assay: Rankl induction by R5020 or LNG in mouse mammary organoids co-treated with AR antagonists; type: cell-based; details: 6 h
# Procedure: as §5, §6, §3
# HBECs [8] = assay: In vivo growth of HBEC xenografts treated with LNG with or without enzalutamide; set-up: species or system human; details: enzalutamide 30 mg/kg intraperitoneally 3 times/week, the 2 LNG-responsive PDXs
# Procedure: Mice were anesthetized by intraperitoneal injection with 10 mg/kg xylazine and 90 mg/kg ketamine (Graeub) and injected intraductally with 10 μl cell suspension per gland. […] After 3–10 weeks, when bioluminescence from individual glands reached 10^7 total flux (p/s/cm2/sr), animals were assigned to different treatment groups and hormone pellets implanted subcutaneously. Enzalutamide (Selleckchem, Catalog No. S1250) dissolved in 15% DMSO in PEG300 was injected intraperitoneally 3 times/week at 30 mg/kg.
# [9] = BalbC-derived organoids, 24 h of stimulation
# [10] = antagonist 100 µM, C57Bl6-derived organoids
Structure (SMILES),Rankl transcript levels over vehicle-treated control (Rankl [1]) [fold],Rankl transcript induction (Rankl [1]; [9]) [fold],"Rankl transcript induction (Rankl [1]; C57Bl/6 mice, 6 h, 20 nM) [fold]",androgenic / anti-androgenic activity (AR),"cell proliferation (KI67 and hECAD double+ cells), overall analysis (HBECs [2])",cell proliferation (KI67 and hECAD double+ cells) (HBECs [2]),morphologic changes in xenografts (H&E) (human breast epithelium),KLK3 transcripts levels (KLK3),growth (course of radiance) of engrafted HBECs versus control (HBECs [3]),relative radiance at endpoint over control (FC) (HBECs [3]),Wnt4 transcript levels over vehicle-treated control (Wnt4 [4]) [fold],Wnt4 transcript induction (Wnt4 [4]; [9]) [fold],"Wnt4 transcript induction (Wnt4 [4]; C57Bl/6 mice, 6 h, 20 nM) [fold]",endogenous progesterone plasma levels (estrous cycle-related variation) [5],effect of AR antagonist on Wnt4 induction by LNG (Wnt4 [6]),effect of AR antagonist on Wnt4 induction by R5020 (Wnt4 [6]),"effect of AR antagonist on Rankl induction (Rankl [7]; antagonist 10 µM, n = 3)",effect of AR antagonist on Rankl induction by LNG (Rankl [7]; [10]),effect of AR antagonist on Rankl induction by R5020 (Rankl [7]; [10]),effect of enzalutamide on LNG-induced proliferation (HBECs [8])
"C#C[C@]1(O)CC[C@H]2[C@@H]3CCC4=CC(=O)CC[C@@H]4[C@H]3C(=C)C[C@@]21CC [DSG, 3‐ketodesogestrel]",22.3,177.2,15.5,androgenic activity,increased,significantly increased,3 or 4 grafts showed diffuse and in some cases marked acinar proliferation,increased,increased growth,2 fold and 2.0 fold,8.5,32.2,4.2,suppressed,,,,,,
"C#C[C@]1(O)C=C[C@H]2[C@@H]3CCC4=CC(=O)CC[C@@H]4[C@H]3CC[C@@]21CC [GSN, gestodene]",18.2,617.2,21.5,androgenic activity,increased,significantly increased,3 or 4 grafts showed diffuse and in some cases marked acinar proliferation,increased,increased growth,2.2 fold,4.9,33.5,3.6,suppressed,,,,,,
CNC(=O)c1ccc(N2C(=S)N(c3ccc(C#N)c(C(F)(F)F)c3)C(=O)C2(C)C)cc1F [enzalutamide],,,,,,,,,,,,,,,not affected,no effect,failed to reach significance,significantly reduced,abrogated,decreased the proliferative effects of LNG
